From patent US20260325533A1, “CDK INHIBITOR COMPOUNDS” (ALEKSIA THERAPEUTICS, INC., priority 2023, published 2026) come the findings set out here.

Read-outs that look alike come from different tables or passages of the source.

Common to all, as to format: biochemical
In experiment [1] the target is CDK2/CCNE1 (Homo sapiens, UniProt P24941). Description: CDK2 homogeneous time-resolved fluorescence (HTRF) kinase assay. The conditions noted are these: CDK2/CCNE. Summed up: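 CDK2/CCNE1 (3 nM) preincubated 20 min at 23 °C with compound, then reacted 60 min at 23 °C with 1 mM ATP and 50 nM ULight-4E-BP1 (Thr37/46) peptide. Stopped with EDTA, phospho-peptide detected by Eu-anti-phospho antibody (665 nm or 665/615 ratio). IC50 from 11-point half-log titrations typically starting at 10 μM.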

For experiment [2], the target named is CDK1/CCNB1 (Homo sapiens, UniProt P06493). Briefly: CDK1 homogeneous time-resolved fluorescence (HTRF) kinase assay. The conditions noted are these: CDK1/CCNB. In short, it runs like this: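 Compounds, titrated 11 points in half-log steps typically from 10 μM, were incubated with enzyme for 20 min before ATP (1 mM) and ULight-labelled eIF4E-binding protein 1 peptide (50 nM) started a 60-min reaction at 23 °C. Phosphopeptide was detected by europium-antibody TR-FRET and IC50 values were derived.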
CDK1/CCNB1, sequence (P06493 whole entry): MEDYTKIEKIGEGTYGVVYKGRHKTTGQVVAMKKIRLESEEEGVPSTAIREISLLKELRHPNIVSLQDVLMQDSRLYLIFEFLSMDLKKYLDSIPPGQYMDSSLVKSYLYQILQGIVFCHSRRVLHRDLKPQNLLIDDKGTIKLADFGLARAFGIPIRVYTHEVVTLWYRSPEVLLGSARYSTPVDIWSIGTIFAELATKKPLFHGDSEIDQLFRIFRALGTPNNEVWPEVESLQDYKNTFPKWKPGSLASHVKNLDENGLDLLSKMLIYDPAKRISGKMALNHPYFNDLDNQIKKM
CDK1/CCNB1, sequence (P14635 whole entry partner): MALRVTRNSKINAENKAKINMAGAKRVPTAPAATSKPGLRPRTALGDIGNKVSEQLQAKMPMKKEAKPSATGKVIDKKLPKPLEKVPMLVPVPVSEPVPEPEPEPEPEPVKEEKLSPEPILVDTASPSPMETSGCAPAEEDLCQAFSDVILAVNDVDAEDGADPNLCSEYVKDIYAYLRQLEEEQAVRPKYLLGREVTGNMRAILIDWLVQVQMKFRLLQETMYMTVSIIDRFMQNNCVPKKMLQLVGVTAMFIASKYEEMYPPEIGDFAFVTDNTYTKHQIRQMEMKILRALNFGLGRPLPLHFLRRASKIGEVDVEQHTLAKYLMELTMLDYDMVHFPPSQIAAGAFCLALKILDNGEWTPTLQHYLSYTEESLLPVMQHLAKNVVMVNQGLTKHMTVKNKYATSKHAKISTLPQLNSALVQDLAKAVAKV

For experiment [3], the target named is CDK4/CCND3 (Homo sapiens, UniProt P11802). Description: CDK4 homogeneous time-resolved fluorescence (HTRF) kinase assay. The conditions noted are these: CDK4/CCND. In short, it runs like this:
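Inhibition of CDK4/CCND3 (1.5 nM) was measured at high ATP (1 mM) using 50 nM ULight-labelled 4E-BP1 Thr37/46 peptide; detection used 2 nM europium anti-phospho antibody after EDTA quench. IC50 values came from 11-point half-log titrations typically starting at 10 μM.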
On the technique in general: Time-resolved FRET reads energy transfer from a long-lived donor to a nearby acceptor.

Experiment [4] concerns the target CDK6/CCND1 (Homo sapiens, UniProt Q00534). Description: CDK6 homogeneous time-resolved fluorescence (HTRF) kinase assay. The conditions noted are these: CDK6/CCND; x = IC50 >250 nM; read-out: CDK6/CCND IC50 (>250 nM column). In short, it runs like this:
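1 nM enzyme, 1 mM ATP, 50 nM ULight-4E-BP1 (Thr37/46) peptide, 1% DMSO; 20 min compound preincubation, 60 min reaction, 23 °C. EDTA stop, 2 nM Eu-anti-phospho-4E-BP1 antibody 60 min. TR-FRET 665 nm (or 665/615 ratio); IC50 from 11-point half-log titration, top 10 μM.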

Setting [5] is: x = IC50 <25 nM, read-out: CDK2/CCNE IC50 (<25 nM).
The mark [6] stands for this setting: x = IC50 25-250 nM, read-out: CDK1/CCNB IC50 (25-250 nM).
[7] abbreviates: x = IC50 25-250 nM, read-out: CDK4/CCND IC50 (25-250 nM).
The mark [8] stands for this setting: x = IC50 >250 nM, read-out: CDK4/CCND IC50 (>250 nM column).
[9] abbreviates: x = IC50 25-250 nM, read-out: CDK2/CCNE IC50 (25-250 nM).
Where [10] appears, read: x = IC50 >250 nM, read-out: CDK1/CCNB IC50 (>250 nM column).

CDK6/CCND1, sequence (Q00534 whole entry): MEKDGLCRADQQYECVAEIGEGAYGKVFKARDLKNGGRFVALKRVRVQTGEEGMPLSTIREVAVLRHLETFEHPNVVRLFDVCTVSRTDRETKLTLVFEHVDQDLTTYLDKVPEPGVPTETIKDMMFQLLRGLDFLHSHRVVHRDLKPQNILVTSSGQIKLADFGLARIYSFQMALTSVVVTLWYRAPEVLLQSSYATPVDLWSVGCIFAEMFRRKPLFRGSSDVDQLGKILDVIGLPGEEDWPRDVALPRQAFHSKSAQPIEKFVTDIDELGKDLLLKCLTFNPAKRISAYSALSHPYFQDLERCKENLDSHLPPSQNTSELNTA
CDK6/CCND1, sequence (P24385 whole entry partner): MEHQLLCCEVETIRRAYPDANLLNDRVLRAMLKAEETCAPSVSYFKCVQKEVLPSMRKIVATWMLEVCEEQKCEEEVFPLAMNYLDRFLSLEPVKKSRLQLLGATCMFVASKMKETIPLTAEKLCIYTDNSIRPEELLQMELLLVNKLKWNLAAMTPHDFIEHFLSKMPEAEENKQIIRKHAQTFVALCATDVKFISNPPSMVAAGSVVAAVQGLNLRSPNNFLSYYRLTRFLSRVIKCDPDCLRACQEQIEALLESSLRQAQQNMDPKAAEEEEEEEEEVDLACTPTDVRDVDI
CDK4/CCND3, sequence (P11802 whole entry): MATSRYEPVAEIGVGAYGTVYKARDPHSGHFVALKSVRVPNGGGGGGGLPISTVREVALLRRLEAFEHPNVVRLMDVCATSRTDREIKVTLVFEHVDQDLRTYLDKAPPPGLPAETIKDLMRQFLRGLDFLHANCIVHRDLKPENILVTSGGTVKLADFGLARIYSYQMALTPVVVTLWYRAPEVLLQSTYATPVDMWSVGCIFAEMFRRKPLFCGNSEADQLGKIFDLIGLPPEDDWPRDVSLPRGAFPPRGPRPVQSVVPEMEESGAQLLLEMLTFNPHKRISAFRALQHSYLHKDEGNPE
CDK4/CCND3, sequence (P30281 whole entry partner): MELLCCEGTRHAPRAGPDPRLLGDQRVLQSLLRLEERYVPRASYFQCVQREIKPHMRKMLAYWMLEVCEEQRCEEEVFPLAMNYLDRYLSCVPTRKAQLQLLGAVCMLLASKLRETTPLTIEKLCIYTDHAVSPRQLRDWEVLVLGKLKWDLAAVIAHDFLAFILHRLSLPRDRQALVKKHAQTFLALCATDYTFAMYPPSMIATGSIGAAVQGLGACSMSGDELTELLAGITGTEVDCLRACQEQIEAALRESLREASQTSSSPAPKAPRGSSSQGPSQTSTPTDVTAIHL

For `CCNS(=O)(=O)c1ccc(Nc2cc3c(C#Cc4cccnc4N)nccc3cn2)cc1` [Ex 447, 4-((5-((2-aminopyridin-3-yl)ethynyl)-2,6-naphthyridin-3-yl)amino)-N-ethylbenzenesulfonamide], the IC50 is less than 25 nM in experiment [1] (setting [5]), 25 to 250 nM in experiment [2] (setting [6]), 25 to 250 nM in experiment [3] (setting [7]) and greater than 250 nM in experiment [4].
In the case of `Cc1cc(S(N)(=O)=O)ccc1Nc1cc2c(C#Cc3cccnc3N)nccc2cn1` [Ex 448, 4-((5-((2-aminopyridin-3-yl)ethynyl)-2,6-naphthyridin-3-yl)amino)-3-methylbenzenesulfonamide], the IC50 in experiment [1] (setting [5]) is less than 25 nM; in experiment [2] (setting [6]), 25 to 250 nM; in experiment [3] (setting [8]), greater than 250 nM; in experiment [4] it was greater than 250 nM.
On to `Cn1cc(NS(=O)(=O)c2ccc(Nc3cc4c(C#Cc5cccnc5N)nccc4cn3)cc2)cn1` [Ex 450, 4-((5-((2-aminopyridin-3-yl)ethynyl)-2,6-naphthyridin-3-yl)amino)-N-(1-methyl-1H-pyrazol-4-yl)benzenesulfonamide], for which the IC50 in experiment [1] (setting [9]) was 25 to 250 nM; in experiment [2] (setting [10]), greater than 250 nM; in experiment [3] (setting [8]), greater than 250 nM; in experiment [4] it was greater than 250 nM.
Take `CC1(C)C(=O)Nc2cc(C#Cc3nccc4cnc(Nc5ccc(S(=O)(=O)NC6CCC6)cc5)cc34)ccc21` [Ex 457, N-cyclobutyl-4-((5-((3,3-dimethyl-2-oxoindolin-6-yl)ethynyl)-2,6-naphthyridin-3-yl)amino)benzenesulfonamide]: the IC50 in experiment [1] (setting [5]) was less than 25 nM; in experiment [2] (setting [6]), 25 to 250 nM; in experiment [3] (setting [8]), greater than 250 nM; in experiment [4], greater than 250 nM.
`CC(C)S(=O)(=O)c1ccc(Nc2cc3c(C#Cc4ccc5c(c4)NC(=O)C5(C)C)nccc3cn2)cc1` [Ex 458, 6-((7-((4-(isopropylsulfonyl)phenyl)amino)-2,6-naphthyridin-1-yl)ethynyl)-3,3-dimethylindolin-2-one]: the IC50 is less than 25 nM in experiment [1] (setting [5]), 25 to 250 nM in experiment [2] (setting [6]), greater than 250 nM in experiment [3] (setting [8]) and greater than 250 nM in experiment [4].
For the compound `CCS(=O)(=O)c1ccc(Nc2cc3c(C#Cc4ccc5c(c4)NC(=O)C5(C)C)nccc3cn2)cc1` [Ex 459, 6-((7-((4-(ethylsulfonyl)phenyl)amino)-2,6-naphthyridin-1-yl)ethynyl)-3,3-dimethylindolin-2-one], the IC50 in experiment [1] (setting [5]) was less than 25 nM; in experiment [2] (setting [6]), 25 to 250 nM; in experiment [3] (setting [7]), 25 to 250 nM; in experiment [4] it was greater than 250 nM.
For the compound `CS(=O)(=O)c1ccc(Nc2cc3c(C#Cc4ccc5c(c4)NC(=O)C54CCC4)nccc3cn2)cc1` [Ex 460, 6'-((7-((4-(methylsulfonyl)phenyl)amino)-2,6-naphthyridin-1-yl)ethynyl)spiro[cyclobutane-1,3'-indolin]-2'-one], the IC50 in experiment [1] (setting [5]) was less than 25 nM; in experiment [2] (setting [10]) it was greater than 250 nM; in experiment [3] (setting [8]), greater than 250 nM; in experiment [4] it was greater than 250 nM.
Take `CCC1(CC)C(=O)Nc2cc(C#Cc3nccc4cnc(Nc5ccc(S(C)(=O)=O)cc5)cc34)ccc21` [Ex 461, 3,3-diethyl-6-((7-((4-(methylsulfonyl)phenyl)amino)-2,6-naphthyridin-1-yl)ethynyl)indolin-2-one]: the IC50 in experiment [1] (setting [5]) is less than 25 nM; in experiment [2] (setting [10]), greater than 250 nM; in experiment [3] (setting [8]), greater than 250 nM; in experiment [4], greater than 250 nM.
`Nc1ncccc1C#Cc1nccc2cnc(Nc3ccc(S(N)(=O)=O)cc3F)cc12` [Ex 466, 4-((5-((2-aminopyridin-3-yl)ethynyl)-2,6-naphthyridin-3-yl)amino)-3-fluorobenzenesulfonamide]: the IC50 is less than 25 nM in experiment [1] (setting [5]), greater than 250 nM in experiment [2] (setting [10]), greater than 250 nM in experiment [3] (setting [8]) and greater than 250 nM in experiment [4].
With `CNS(=O)(=O)c1ccc(Nc2cc3c(C#Cc4cccnc4N)nccc3cn2)c(F)c1` [Ex 467, 4-((5-((2-aminopyridin-3-yl)ethynyl)-2,6-naphthyridin-3-yl)amino)-3-fluoro-N-methylbenzenesulfonamide], the IC50 was less than 25 nM in experiment [1] (setting [5]), 25 to 250 nM in experiment [2] (setting [6]), greater than 250 nM in experiment [3] (setting [8]) and greater than 250 nM in experiment [4].
For `Nc1ncccc1C#Cc1nccc2cnc(Nc3ccc(S(=O)(=O)Nc4nccc(N5CCNCC5)n4)cc3)cc12` [Ex 468, 4-((5-((2-aminopyridin-3-yl)ethynyl)-2,6-naphthyridin-3-yl)amino)-N-(4-(piperazin-1-yl)pyrimidin-2-yl)benzenesulfonamide], the IC50 is 25 to 250 nM in experiment [1] (setting [9]), greater than 250 nM in experiment [2] (setting [10]), greater than 250 nM in experiment [3] (setting [8]) and greater than 250 nM in experiment [4].
With `CNS(=O)(=O)c1ccc(Nc2cc3c(C#Cc4cccnc4N)nccc3cn2)cc1` [Ex 469, 4-((5-((2-aminopyridin-3-yl)ethynyl)-2,6-naphthyridin-3-yl)amino)-N-methylbenzenesulfonamide], the IC50 is less than 25 nM in experiment [1] (setting [5]), 25 to 250 nM in experiment [2] (setting [6]), 25 to 250 nM in experiment [3] (setting [7]) and greater than 250 nM in experiment [4].
On to `CS(=O)(=O)c1ccc(Nc2cc3c(C#Cc4cnn5ccccc45)nccc3cn2)cc1` [Ex 478, N-(4-(methylsulfonyl)phenyl)-5-(pyrazolo[1,5-a]pyridin-3-ylethynyl)-2,6-naphthyridin-3-amine], for which the IC50 is 25 to 250 nM in experiment [1] (setting [9]), greater than 250 nM in experiment [2] (setting [10]), greater than 250 nM in experiment [3] (setting [8]) and greater than 250 nM in experiment [4].
On to `CC1(C)C(=O)Nc2cc(C#Cc3nccc4cnc(Nc5ccc(S(C)(=O)=O)cc5)cc34)ccc21` [Ex 486, 3,3-dimethyl-6-((7-((4-(methylsulfonyl)phenyl)amino)-2,6-naphthyridin-1-yl)ethynyl)indolin-2-one], for which the IC50 in experiment [1] (setting [5]) was less than 25 nM; in experiment [2] (setting [6]) it was 25 to 250 nM; in experiment [3] (setting [7]), 25 to 250 nM; in experiment [4], greater than 250 nM.
With `CS(=O)(=O)c1ccc(Nc2cc3c(C#Cc4cncnc4N)nccc3cn2)cc1` [Ex 492, 5-((4-aminopyrimidin-5-yl)ethynyl)-N-(4-(methylsulfonyl)phenyl)-2,6-naphthyridin-3-amine], the IC50 in experiment [1] (setting [9]) is 25 to 250 nM; in experiment [2] (setting [10]), greater than 250 nM; in experiment [3] (setting [8]), greater than 250 nM; in experiment [4] it was greater than 250 nM.
As to `COC(=O)c1ccc2c(C#Cc3nccc4cnc(Nc5ccc(S(C)(=O)=O)cc5)cc34)n[nH]c2c1` [Ex 498, methyl 3-((7-((4-(methylsulfonyl)phenyl)amino)-2,6-naphthyridin-1-yl)ethynyl)-1H-indazole-6-carboxylate], the IC50 in experiment [1] (x = IC50 >250 nM, read-out: CDK2/CCNE IC50 (>250 nM column)) is greater than 250 nM; in experiment [2] (setting [10]), greater than 250 nM; in experiment [3] (setting [8]) it was greater than 250 nM; in experiment [4] it was greater than 250 nM.
For `COc1ccc(C#Cc2nccc3cnc(Nc4ccc(S(C)(=O)=O)cc4)cc23)cc1F` [Ex 499, 5-((3-fluoro-4-methoxyphenyl)ethynyl)-N-(4-(methylsulfonyl)phenyl)-2,6-naphthyridin-3-amine], the IC50 is 25 to 250 nM in experiment [1] (setting [9]), greater than 250 nM in experiment [2] (setting [10]), greater than 250 nM in experiment [3] (setting [8]) and greater than 250 nM in experiment [4].
Turning to `Cc1c(C#Cc2nccc3cnc(Nc4ccc(S(C)(=O)=O)cc4)cc23)ccnc1Cl` [Ex 500, 5-((2-chloro-3-methylpyridin-4-yl)ethynyl)-N-(4-(methylsulfonyl)phenyl)-2,6-naphthyridin-3-amine], the IC50 in experiment [1] (setting [9]) was 25 to 250 nM; in experiment [2] (setting [10]), greater than 250 nM; in experiment [3] (setting [8]) it was greater than 250 nM; in experiment [4], greater than 250 nM.
As to `CS(=O)(=O)c1ccc(Nc2cc3c(C#Cc4cnc5[nH]c(=O)oc5c4)nccc3cn2)cc1` [Ex 501, 6-((7-((4-(methylsulfonyl)phenyl)amino)-2,6-naphthyridin-1-yl)ethynyl)oxazolo[4,5-b]pyridin-2(3H)-one], the IC50 in experiment [1] (setting [9]) is 25 to 250 nM; in experiment [2] (setting [10]) it was greater than 250 nM; in experiment [3] (setting [8]) it was greater than 250 nM; in experiment [4] it was greater than 250 nM.
In the case of `CS(=O)(=O)c1ccc(Nc2cc3c(C#Cc4cccn5ncnc45)nccc3cn2)cc1` [Ex 502, 5-([1,2,4]triazolo[1,5-a]pyridin-8-ylethynyl)-N-(4-(methylsulfonyl)phenyl)-2,6-naphthyridin-3-amine], the IC50 in experiment [1] (setting [9]) was 25 to 250 nM; in experiment [2] (setting [10]), greater than 250 nM; in experiment [3] (setting [8]) it was greater than 250 nM; in experiment [4] it was greater than 250 nM.
